From patent publication US6838456B2, “Condensed pyridoindole derivatives” (Lilly ICOS LLC, priority 2000, dated 2005)

biological target: human recombinant PDE5 (Homo sapiens, UniProt O76074); assay: Inhibitory effect on cGMP-PDE (one-step assay, 8-[H3]-cGMP); assay type: biochemical; conditions: in vitro
Description: The compounds of structural formula (I) were tested for an ability to inhibit PDE5. The ability of a compound to inhibit PDE5 activity is related to the IC50 value for the compound, i.e., the concentration of inhibitor required for 50% inhibition of enzyme activity. The IC50 value for compounds of structural formula (I) were determined using recombinant human PDE5.
cGMP-PDE activity of compounds of the present invention was measured using a one-step assay adapted from Wells et al., Biochim. Biophys. Acta, 384, 430 (1975). The reaction medium contained 50 mM Tris-HCl, pH 7.5, 5 mM magnesium acetate, 250 μg/ml 5′-Nucleotidase, 1 mM EGTA, and 0.15 μM 8-[H^3]-cGMP. Unless otherwise indicated, the enzyme used was a human recombinant PDE5 (ICOS Corp., Bothell, Wash.).
Compounds of the invention were dissolved in DMSO finally present at 2% in the assay.

SMILES	IC50
CCOC(=O)c1cc(CNCc2ccccc2)n2c1Cc1c([nH]c3ccccc13)C2c1ccc2c(c1)OCO2 (stereo not drawn) [Example 6]	10 nM
CCOC(=O)c1cc(CN)n2c1Cc1c([nH]c3ccccc13)C2c1ccc2c(c1)CCO2 (stereo not drawn) [Example 8]	40 nM
c1ccc2c3c([nH]c2c1)C(c1ccc2c(c1)OCO2)n1cccc1C3 (stereo not drawn) [Example 10]	140 nM
CCOC(=O)c1c(C(=O)OCC)c2n(c1CC)C(c1ccc3c(c1)OCO3)c1[nH]c3ccccc3c1C2 (stereo not drawn) [Example 12]	10 nM
CCOC(=O)c1c(C(=O)O)c(CC)n2c1Cc1c([nH]c3ccccc13)C2c1ccc2c(c1)OCO2 (stereo not drawn) [Example 13]	5.9 nM
O=C(NCC1CCCO1)c1ccn2c1Cc1c([nH]c3ccccc13)C2c1ccc2c(c1)OCO2 (stereo not drawn) [Example 14]	5.8 nM
CCOC(=O)c1c(C(=O)OCC)c(C(C)C)n2c1Cc1c([nH]c3ccccc13)C2c1ccc2c(c1)OCO2 (stereo not drawn) [Example 15]	190 nM
CN1CCC(N(C)C(=O)c2ccn3c2Cc2c([nH]c4ccccc24)C3c2ccc3c(c2)OCO3)CC1 (stereo not drawn) [Example 16]	330 nM
O=C(NCCn1cccn1)c1ccn2c1Cc1c([nH]c3ccccc13)C2c1ccc2c(c1)OCO2 (stereo not drawn) [Example 17]	8 nM
CCOC(=O)c1cc(CO)n2c1Cc1c([nH]c3ccccc13)C2c1ccc2c(c1)OCO2 (stereo not drawn) [Example 18]	10 nM
CCOC(=O)c1cc(C(C)C)n2c1Cc1c([nH]c3ccccc13)C2c1ccc2c(c1)OCO2 (stereo not drawn) [Example 19]	460 nM
O=C(NCc1cccnc1)c1ccn2c1Cc1c([nH]c3ccccc13)C2c1ccc2c(c1)OCO2 (stereo not drawn) [Example 25]	5.9 nM
CN(C)CCNC(=O)c1ccn2c1Cc1c([nH]c3ccccc13)C2c1ccc2c(c1)OCO2 (stereo not drawn) [Example 26]	110 nM
NCCNC(=O)c1ccn2c1Cc1c([nH]c3ccccc13)C2c1ccc2c(c1)OCO2 (stereo not drawn) [Example 30]	10 nM
O=C(NCCN1CCOCC1)c1ccn2c1Cc1c([nH]c3ccccc13)C2c1ccc2c(c1)OCO2 (stereo not drawn) [Example 31]	20 nM
O=C(O)c1ccn2c1Cc1c([nH]c3ccccc13)C2c1ccc2c(c1)OCO2 (stereo not drawn) [Example 36]	10 nM
CCc1cc(C(=O)NCc2ccccn2)c2n1C(c1ccc3c(c1)OCO3)c1[nH]c3ccccc3c1C2 (stereo not drawn) [Example 53]	50 nM

The next molecules have a lower IC50 than those just listed; values first:

IC50	SMILES
5.6 nM	CCOC(=O)c1c(C(=O)OCC)c2n(c1C)[C@H](c1ccc3c(c1)OCO3)c1[nH]c3ccccc3c1C2 [Example 1, (R)-5-Benzo[1,3]dioxol-5-yl-3-methyl-6,11-dihydro-5H-indolizino[6,7-b]indole-1,2-dicarboxylic acid diethyl ester]
1.5 nM	O=C(NCc1cccc[n+]1[O-])c1ccn2c1Cc1c([nH]c3ccccc13)C2c1ccc2c(c1)OCO2 (stereo not drawn) [Example 20]
1.2 nM	CCOC(=O)c1cn2c(c1C(=O)OCC)Cc1c([nH]c3ccccc13)C2c1ccc2c(c1)OCO2 (stereo not drawn) [Example 21]
3 nM	O=C(O)C1CCN(C(=O)c2ccn3c2Cc2c([nH]c4ccccc24)C3c2ccc3c(c2)OCO3)CC1 (stereo not drawn) [Example 22]
3.9 nM	CCOC(=O)c1cc(C=O)n2c1Cc1c([nH]c3ccccc13)C2c1ccc2c(c1)OCO2 (stereo not drawn) [Example 23]
2.1 nM	O=C(NCCc1ccccn1)c1ccn2c1Cc1c([nH]c3ccccc13)C2c1ccc2c(c1)OCO2 (stereo not drawn) [Example 24]
3.6 nM	N#Cc1ccn2c1Cc1c([nH]c3ccccc13)C2c1ccc2c(c1)OCO2 (stereo not drawn) [Example 27]
3.7 nM	O=C(NCc1ccccn1)c1ccn2c1Cc1c([nH]c3ccccc13)C2c1ccc2c(c1)OCO2 (stereo not drawn) [Example 28]
3.8 nM	CN(C(=O)O)C(=O)c1ccn2c1Cc1c([nH]c3ccccc13)C2c1ccc2c(c1)OCO2 (stereo not drawn) [Example 29]
5.5 nM	CCOC(=O)c1ccn2c1Cc1c([nH]c3ccccc13)C2c1ccc2c(c1)OCO2 (stereo not drawn) [Example 35]
